According to US9963462B2 (priority 2015, dated 2018):

How the values were obtained:
[1] = test system: BH4 levels in SK-N-BE (2) cells; assay: SKN-N-BE (2) cellular assay, BH4 levels by LC-MS; type: cell-based; conditions: Homo sapiens, SKNBE2, read-out: SK-N-BE(2) IC50, SK-N-BE (2) cells, BH4 levels by LC-MS
[2] = test system: BH4 production in human peripheral blood mononuclear cells (PBMCs); assay: hPBMC assay, inhibition of BH4 production by LC-MS (anti-CD3/anti-CD28 stimulated); type: cell-based; conditions: PBMC, read-out: hPBMC IC50
Description: hPBMC Assay: PBMCs were either purchased or isolated from fresh human blood and used either as a fresh preparation or frozen for later use. The assay system was prepared by pre-treating the assay plates overnight with a solution containing anti-human CD3 antibody. Human PBMCs were suspended in assay medium and plated into the assay plates at a density of 1-4×10^5 cells per well. The desired concentration of the test compound was added to each well. A solution of human anti-CD28 antibody was also added to each well. Plates were incubated for 12-48 hours at 37° C. and 5% CO2. Assay plates were centrifuged for 5-15 minutes at 1-3000 RMP and supernatants were removed. The cells were lysed, sealed and used directly or frozen at −80° C. LC-MS was used to quantify the amount of inhibition of BH4 production.
PBMCs were either purchased or isolated from fresh human blood and used either as a fresh preparation or frozen for later use. The assay system was prepared by pre-treating the assay plates overnight with a solution containing anti-human CD3 antibody. Human PBMCs were suspended in assay medium and plated into the assay plates at a density of 1-4×10^5 cells per well. The desired concentration of the test compound was added to each well. A solution of human anti-CD28 antibody was also added to each well. Plates are incubated for 12-48 hours at 37° C. and 5% CO2. Assay plates were centrifuged for 5-15 minutes at 1-3000 RMP and supernatants were removed. The cells were lysed, sealed and used directly or frozen at −80° C.

[3] = molecular target: SNAP-hSPR (sepiapterin reductase, SPR) (Homo sapiens, UniProt P35270); assay: biochemical; type: binding; conditions: terbium labelled SNAP-hSPR / SSZ labelled SNAP-EGFP; read-out: hTR-FRET IC50
Sequence of SNAP-hSPR (sepiapterin reductase, SPR) (P35270 whole entry): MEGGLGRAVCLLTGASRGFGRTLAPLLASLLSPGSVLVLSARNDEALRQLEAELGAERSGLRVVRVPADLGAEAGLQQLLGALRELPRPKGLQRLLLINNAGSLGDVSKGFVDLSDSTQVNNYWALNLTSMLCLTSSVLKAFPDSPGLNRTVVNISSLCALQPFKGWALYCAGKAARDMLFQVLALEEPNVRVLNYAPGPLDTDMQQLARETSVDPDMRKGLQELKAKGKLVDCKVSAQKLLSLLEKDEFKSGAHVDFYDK

SMILES	IC50 [1]	IC50 [2]	IC50 [3]
Cc1c(C(=O)N2CCC3(CC2)CC(F)C3)cnn1-c1nn2cccc2c(=O)[nH]1 [Q-0998]	0.3 µM	0.092 µM	0.001 µM
Cc1c(C(=O)N2CCN(C3CCC3)CC2)cnn1-c1nn2cccc2c(=O)[nH]1 [Q-0821]	0.1 µM	0.051 µM	0.001 µM
Cc1c(C(=O)N2CCC3(CC2)CC3C(=O)N2CCCCC2)cnn1-c1nc2c(c(=O)[nH]1)CCC2 (centres unmarked) [Q-1058]	0.093 µM	0.15 µM	0.002 µM
Cc1c(C(=O)N2CCCN(CC(F)(F)F)CC2)cnn1-c1nn2cccc2c(=O)[nH]1 [Q-0992]	0.8 µM	0.098 µM	0.003 µM
Cc1c(C(=O)N2C3CCC2CC(O)(c2ccccc2)C3)cnn1-c1nn2cccc2c(=O)[nH]1 (centres unmarked) [Q-0797]	0.1 µM	0.027 µM	0.001 µM
O=C(c1cnn(-c2nn3c(F)ccc3c(=O)[nH]2)c1)N1CCC(C(F)(F)F)CC1 [Q-0525, 7-fluoro-2-(4-(4-(trifluoromethyl)piperidine-1-carbonyl)-1H-pyrazol-1-yl)pyrrolo[1,2-f][1,2,4]triazin-4(3H)-one]	0.019 µM	0.024 µM	0.001 µM
Cc1c(C(=O)N2CCC(C(C)C#N)CC2)cnn1-c1nn2cccc2c(=O)[nH]1 (centres unmarked) [Q-0849]	0.3 µM	0.044 µM	0.001 µM
CC[C@H](C#N)C1CCN(C(=O)c2cnn(-c3nc4c(c(=O)[nH]3)CCC4)c2C)CC1 [Q-1041]	0.046 µM	0.028 µM	0.001 µM
Cc1c(C(=O)N2CCN(CC#N)CC2)cnn1-c1nn2cccc2c(=O)[nH]1 [Q-0918]	0.6 µM	0.12 µM	0.002 µM
Cc1c(C(=O)N2CCN(C3CC3)CC2)cnn1-c1nc2c(c(=O)[nH]1)CCC2 [Q-1022]	0.1 µM	0.041 µM	0.002 µM
CCC(C1CCN(C(=O)c2cnn(-c3nn4cccc4c(=O)[nH]3)c2C)CC1)C(F)(F)F (centres unmarked) [Q-1051]	0.053 µM	0.027 µM	0.001 µM
Cc1c(C(=O)N2CCC3(CC2)CC3)cnn1-c1nc2c(c(=O)[nH]1)CCC2 [Q-0635]	0.1 µM	0.054 µM	0.002 µM
Cc1c(C(=O)N2CCN(CC(F)(F)F)CC2)nnn1-c1nn2cccc2c(=O)[nH]1 [Q-1007]	0.5 µM	0.12 µM	0.001 µM
Cc1c(C(=O)N2CCN(C(C)(C)C)CC2)cnn1-c1nn2cccc2c(=O)[nH]1 [Q-0888]	0.4 µM	0.24 µM	0.005 µM
Cc1c(C(=O)N2CCC(C(O)C(F)(F)F)CC2)cnn1-c1nc2c(c(=O)[nH]1)CCC2 (centres unmarked) [Q-1067]	0.1 µM	0.16 µM	0.002 µM
Cc1c(C(=O)N2CCC3(CC2)CC3C(=O)N(C)C2CC2)cnn1-c1nn2cccc2c(=O)[nH]1 (centres unmarked) [Q-0930]	0.3 µM	0.058 µM	0.001 µM
Cc1c(C(=O)N2CCC(C(=O)N3CCCC3)(C(F)(F)F)CC2)cnn1-c1nn2cccc2c(=O)[nH]1 [Q-1046]	0.1 µM	0.083 µM	0.001 µM
Cc1c(C(=O)N2CCc3[nH]ncc3C2)cnn1-c1nn2cccc2c(=O)[nH]1 [Q-1932]	–	2.7 µM	0.003 µM
CCC(=O)N1CCN(C(=O)c2cnn(-c3nn4cccc4c(=O)[nH]3)c2C)CC1 [Q-1214]	–	1 µM	0.006 µM
COCC(C1CCN(C(=O)c2cnn(-c3nn4cccc4c(=O)[nH]3)c2C)CC1)C(F)(F)F (centres unmarked) [Q-1198]	–	0.017 µM	0.001 µM

SMILES	IC50 [1]	IC50 [2]	IC50 [3]
Cc1c(C(=O)N2CCCC(C(F)(F)F)CC2)cnn1-c1nn2cccc2c(=O)[nH]1 (centres unmarked) [Q-1124]	–	0.035 µM	0.001 µM
Cc1c(C(=O)N2CCc3nc(-c4ccccn4)sc3C2)cnn1-c1nn2cccc2c(=O)[nH]1 [Q-1158]	–	0.13 µM	0.002 µM
Cc1c(C(=O)N2CCC(c3nc(-c4ccncc4)cs3)CC2)cnn1-c1nc2c(c(=O)[nH]1)CCC2 [Q-1136]	–	0.014 µM	0.002 µM
Cc1c(C(=O)N2CCN(S(=O)(=O)c3cccc4ccccc34)CC2)cnn1-c1nn2cccc2c(=O)[nH]1 [Q-1841]	–	0.087 µM	0.001 µM
COC(=O)c1sccc1S(=O)(=O)N1CCN(C(=O)c2cnn(-c3nn4cccc4c(=O)[nH]3)c2C)CC1 [Q-1875]	–	0.11 µM	0.001 µM
Cc1c(C(=O)N2CCN(c3nc(-c4cccc(F)c4)cs3)CC2)cnn1-c1nn2cccc2c(=O)[nH]1 [Q-1156]	–	0.11 µM	0.006 µM
Cc1c(C(=O)N2CCN(c3nnc(-c4ccc(C(F)(F)F)cn4)o3)CC2)cnn1-c1nn2cccc2c(=O)[nH]1 [Q-1178]	–	2.6 µM	0.009 µM
Cc1c(C(=O)N2CCC(C(CO)C(F)(F)F)CC2)cnn1-c1nn2cccc2c(=O)[nH]1 (centres unmarked) [Q-1228]	–	0.017 µM	0.001 µM
Cc1c(C(=O)N2CCC3(CC2)CC3C(=O)N2CCC2)cnn1-c1nn2cccc2c(=O)[nH]1 (centres unmarked) [Q-1088]	–	0.29 µM	0.004 µM
CC[C@@H](C#N)C1CCN(C(=O)c2cnn(-c3nc4c(c(=O)[nH]3)CCC4)c2C)CC1 [Q-1072]	–	0.055 µM	0.002 µM
Cc1c(C(=O)N2CCN(S(=O)(=O)C(C)C)CC2)cnn1-c1nn2cccc2c(=O)[nH]1 [Q-1558]	–	0.092 µM	0.002 µM
Cc1c(C(=O)N2CC(c3cncc(F)c3)C2)cnn1-c1nn2cccc2c(=O)[nH]1 [Q-1129]	–	0.05 µM	0.002 µM
Cc1c(C(=O)N2CCN(CC(F)(F)F)CC2)cnn1-c1nc2cc[nH]c2c(=O)[nH]1 [Q-1260]	–	0.081 µM	0.03 µM
C=C1C2CCCC1CN(C(=O)c1cnn(-c3nn4cccc4c(=O)[nH]3)c1C)C2 [Q-1126]	–	0.048 µM	0.001 µM
Cc1c(C(=O)N2CC3CCCC(C2)C3(O)C(F)(F)F)cnn1-c1nn2cccc2c(=O)[nH]1 (centres unmarked) [Q-1109]	–	0.046 µM	0.001 µM
Cc1c(C(=O)N2CCN(c3ncc(-c4ccccc4C#N)o3)CC2)cnn1-c1nn2cccc2c(=O)[nH]1 [Q-1203]	–	0.18 µM	0.006 µM
O=C(c1cn(-c2nn3cccc3c(=O)[nH]2)nn1)N1CC2CC(C1)N2CC(F)(F)F [Q-1226]	–	0.41 µM	0.007 µM
Cc1c(C(=O)N2CC3(C2)CC(F)(F)C3)cnn1-c1nc2[nH]ccc2c(=O)[nH]1 [Q-1263]	–	0.37 µM	0.1 µM
Cc1c(C(=O)N2CCN(c3ncc(-c4ccc(C#N)cc4)s3)CC2)cnn1-c1nn2cccc2c(=O)[nH]1 [Q-1211]	–	0.16 µM	0.01 µM
Cc1c(C(=O)N2CC3CCCC(C2)N3CC(F)(F)F)cnn1-c1nc2c(c(=O)[nH]1)CCC2 [Q-1081]	–	0.13 µM	0.002 µM

SMILES	IC50 [1]	IC50 [2]	IC50 [3]
Cc1nn(-c2nn3cccc3c(=O)[nH]2)cc1C(=O)N1CCN(CC(F)(F)F)CC1 [Q-1125]	–	0.1 µM	0.006 µM
Cc1c(C(=O)N2CCN(CC(F)(F)F)CC2)cnn1-c1nc2[nH]ccc2c(=O)[nH]1 [Q-1256]	–	0.33 µM	0.03 µM
Cc1c(C(=O)N2CCc3nc(C(F)(F)F)sc3C2)cnn1-c1nn2cccc2c(=O)[nH]1 [Q-1078]	–	0.036 µM	0.005 µM
Cc1c(C(=O)N2CCCC(F)(F)CC2)cnn1-c1nn2cccc2c(=O)[nH]1 [Q-1119]	–	0.37 µM	0.002 µM
Cc1c(C(=O)N2CCC2c2ccc(F)cn2)cnn1-c1nn2cccc2c(=O)[nH]1 (centres unmarked) [Q-1301]	–	0.82 µM	0.01 µM
Cc1c(C(=O)N2CCC(n3cccc3Cl)CC2)cnn1-c1nn2cccc2c(=O)[nH]1 [Q-1233]	–	0.023 µM	0.001 µM
Cc1c(C(=O)N2CC(N3CC(C(F)(F)F)C3)C2)cnn1-c1nn2cccc2c(=O)[nH]1 [Q-1082]	–	0.12 µM	0.004 µM
Cc1c(C(=O)N2CCN(c3nnc(-c4ccc(Cl)cc4)o3)CC2)cnn1-c1nn2cccc2c(=O)[nH]1 [Q-1140]	–	0.23 µM	0.008 µM
Cc1c(C(=O)N2C3CCC2CN(c2nccs2)C3)cnn1-c1nn2cccc2c(=O)[nH]1 [Q-1107]	–	0.058 µM	0.001 µM
Cc1c(C(=O)N2CCN(c3nc(-c4ccncc4)cs3)CC2)cnn1-c1nn2cccc2c(=O)[nH]1 [Q-1182]	–	0.048 µM	0.001 µM
Cc1c(C(=O)N2CCC(c3nc(-c4ccccc4)co3)CC2)cnn1-c1nc2c(c(=O)[nH]1)CCC2 [Q-1079]	–	0.074 µM	0.003 µM
Cc1c(C(=O)N2CCC(O)(C3(C#N)CC3)CC2)cnn1-c1nn2cccc2c(=O)[nH]1 [Q-1092]	–	0.33 µM	0.001 µM
Cc1c(C(=O)N2CCC(c3nc(-c4cccnc4)cs3)CC2)cnn1-c1nn2cccc2c(=O)[nH]1 [Q-1097]	–	0.024 µM	0.001 µM
Cc1c(C(=O)N2CC3CC(C2)N3CC(F)(F)F)cnn1-c1nc2cc[nH]c2c(=O)[nH]1 [Q-1291]	–	2.4 µM	0.2 µM
Cc1c(C(=O)N2CCC(n3cnc(C(F)(F)F)c3)CC2)cnn1-c1nn2cccc2c(=O)[nH]1 [Q-1234]	–	0.027 µM	0.002 µM
Cc1c(C(=O)N2CCC(c3noc(C(F)(F)F)n3)CC2)cnn1-c1nn2cccc2c(=O)[nH]1 [Q-1074]	–	0.022 µM	0.001 µM
CCC(C#N)C1(F)CCN(C(=O)c2cnn(-c3nc4c(c(=O)[nH]3)CCC4)c2C)CC1 (centres unmarked) [Q-1102]	–	0.058 µM	0.001 µM
Cc1c(C(=O)N2CCN(c3nc(-c4ccccc4F)cs3)CC2)cnn1-c1nn2cccc2c(=O)[nH]1 [Q-1165]	–	0.19 µM	0.006 µM
Cc1c(C(=O)N2CCN(c3ncc(-c4ccnc(Cl)c4)s3)CC2)cnn1-c1nn2cccc2c(=O)[nH]1 [Q-1236]	–	0.048 µM	0.006 µM
Cc1c(C(=O)N2CCN(c3nc(-c4ccccc4C#N)cs3)CC2)cnn1-c1nn2cccc2c(=O)[nH]1 [Q-1172]	–	0.18 µM	0.003 µM
